For series [1], the target named is T1, PBCV-1 ThyX (Paramecium bursaria Chlorella virus 1, UniProt O41156). As to the kind of experiment: NADPH oxidation assay, screen and IC50 by dose-response curves.
Method: The NADPH oxidation assay for PBCV-1 ThyX activity (Graziani, S., Xia, Y., Gurnon, J. R., Van Etten, J. L., Leduc, D., Skouloubris, S., Myllykallio, H., and Liebl, U. (2004) Functional analysis of FAD-dependent thymidylate synthase ThyX from Paramecium bursaria Chlorella virus-1. J. Biol. Chem. 279, 54340-54347) was adapted for a medium throughput inhibitor screen (MTS) in 96-well plates. A typical assay with a final volume of 200 μl, contained 200 μM NADPH, 2 μM CH2H4folate, 5 μM dUMP, 1 mM MgCl2, 1% glycerol, 62.5 μM FAD and 400 nM PBCV-1 ThyX. 1982 compounds from the National Cancer Institute diversity set 1 and 340 natural compounds, selected for their diversity and drug-likeness (GreenPharma) (all in DMSO) were added to a final concentration of 20 μM for the initial screen. The microplates were prepared by a liquid handling robotic workstation (Xiril X75), and manually transferred to the automated microplate reader Chameleon II (Hidex). The reactions were started by automatically injecting NADPH into individual wells and the decrease in absorbance at 340 nm was followed at 37° C. for 5 min. Samples with added DMSO and no enzyme were used as positive and negative controls, respectively. For NADPH oxidation at 340 nm a molar extinction coefficient of 6220 M^−1 cm^−1 was used. For this assay a Z′-factor value of 0.62 was calculated, is indicating robustness of the measurement and an acceptable dynamic range of the signal (Zhang, J. H., Chung, T. D., and Oldenburg, K. R. (1999) J. Biomol. Screen. 4, 67-73). Primary hits were defined as compounds that inhibited 75% of ThyX activity at the initial screening concentration.
Compounds that inhibited PBCV-1 ThyX at 20 μM concentration in the NADPH oxidation assay were selected as hits. For each hit IC50 values were determined by fitting the data from three independent experiments to the equation for a dose-response sigmoid curve using GraphPad Prism 4 Software (GraphPad Software Inc.).
All tests were performed in triplicates in 96 well microtiter plates. A typical assay (200 μL) contained 200 μM NADPH, 2 μM dUMP, 1 mM MgCl2, 1% glycerol, 10 μM FAD, 200 nM of PBCV-1 ThyX and different concentrations of inhibitors ranging from 0.1 μM to 40 μM. The reactions were started by injection of NADPH and the absorbance at 340 nm was followed for 3 min at 37° C. […] A molar extinction coefficient for NADPH oxidation at 340 nm of 6220 M^−1 cm^−1 was used for quantification of absorption changes. The optical path length was 0.5 cm. The obtained Vi/V0 values were plotted for each inhibitor concentration and fitted to sigmoidal dose-response curves using GraphPad Prism 4 Software.
For series [2], the system named is Helicobacter pylori 26695. Kind of series: MIC by broth microdilution / disc diffusion test. It counts as cell-based. How it is done:
Helicobacter pylori strain 26695 and SS1 were grown on either blood agar base two (Oxoid) plates supplemented with 10% defibrinated horse blood (Oxoid) or in liquid culture in brain-heart infusion broth (Oxoid) supplemented with 10% FBS (Gibco BRL). An antibiotics-fungicide mix consisting of vancomycin (final concentration 10 μg/ml), polymyxin B (2.5 units per liter), trimethoprim (5 μg/ml), and fungizone (2.5 μg/ml) was added. Plates were incubated at 37° C. under microaerobic atmosphere in jars using the […] gas generating system (Oxoid). Liquid cultures were shaken at 175 rpm. Minimal inhibitory concentrations (MICS) were determined using a broth microdilution test in 24 well microtiter plates. […] The MIC was determined as the lowest compound concentration resulting in complete growth inhibition after 24 h of incubation. All the tests were done in triplicates and they included no cells and DMSO-only controls. […] For disc diffusion test an overnight culture of H. pylori strain 26695 was diluted to OD600≈0.01 and spread on agar plates by inundation. 10 μg of each compound were deposited onto diffusion discs and plates were incubated under microaerophilic conditions for 72 h. The diameters of each inhibition zone were measured (disk surface and a DMSO inhibition zone were subtracted). All experiments were done in triplicate, including a DMSO-only control on each plate. MIC determination by broth microdilution was not possible for M. smegmatis mc2 155 due to build up of cell aggregates in liquid cultures. The susceptibility of M. smegmatis mc2 155 towards selected compounds was thus tested using disc diffusion test on LB-agar plates as described above. The inhibition diameters were read after 48 h of incubation at 37° C.

The target of series [3] is T1, PBCV-1 ThyX. As to the kind of experiment: Deprotonation (tritium release) assay of ThyX activity. It counts as biochemical, Paramecium bursaria chlorella virus (PBCV-1). As to conditions: read-out: % inhibition (deprotonation) PBCV-1 ThyX.
In series [4] the target is T2, ThyX (Paramecium bursaria Chlorella virus 1, UniProt O41156). As to the kind of experiment: biochemical.
T2 sequence (O41156 whole entry): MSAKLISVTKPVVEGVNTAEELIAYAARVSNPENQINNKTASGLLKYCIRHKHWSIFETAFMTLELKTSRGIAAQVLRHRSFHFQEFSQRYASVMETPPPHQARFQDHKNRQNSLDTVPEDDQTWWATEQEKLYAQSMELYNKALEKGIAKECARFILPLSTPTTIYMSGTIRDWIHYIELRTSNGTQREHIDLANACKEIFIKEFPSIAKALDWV
The target in series [5] is T2, ThyX. The settings on record: varying dUMP concentrations.
Series [6] concerns E. coli MG1655. Kind of series: Growth of wild type, thyA-carrying E. coli.
Series [7] deals with E. coli FE010 (ΔthyA::thyX). As to conditions: 1.5 μg/ml (≈5 μM), thymidine-deprived medium.
The test system of series [8] is human lymphoblastoid TK6 cells. Kind of series: GreenScreen HC genotoxicity and cytotoxicity assay.
Method: Two strains of cultured human lymphoblastoid TK6 cells were used, the test strain (GenM-T01) and the non-fluorescent control strain (GenM-001), the latter was used to allow correction for any autofluorescence from the test. The plates were analyzed at 24 hour and 48 hour time points using a microplate reader, that allows measurements of light absorbance and fluorescence for cells and solutions in the microplate wells. Absorbance is proportional to cell proliferation, which is lowered by toxic analytes, and fluorescence is proportional to the activity of the cell's DNA repair system, which is increased by genotoxic analytes. […] The GreenScreen HC +S9 protocol uses the same cultured TK6 cell strains (GenM-001 and GenMT01). […] (5% CO2, 95% humidity) for 3 hours. After a recovery period of 45 hours the GFP fluorescence signal and cell viability (assessed by propidium iodide uptake) were measured.
For series [9], the system named is Mycobacterium smegmatis mc2 155. As to the kind of experiment: Disc diffusion test on LB-agar plates. It counts as cell-based. How it is done:
Liquid cultures were shaken at 175 rpm. Minimal inhibitory concentrations (MICS) were determined using a broth microdilution test in 24 well microtiter plates. […] The MIC was determined as the lowest compound concentration resulting in complete growth inhibition after 24 h of incubation. All the tests were done in triplicates and they included no cells and DMSO-only controls. […] For disc diffusion test an overnight culture of H. pylori strain 26695 was diluted to OD600≈0.01 and spread on agar plates by inundation. 10 μg of each compound were deposited onto diffusion discs and plates were incubated under microaerophilic conditions for 72 h. The diameters of each inhibition zone were measured (disk surface and a DMSO inhibition zone were subtracted). All experiments were done in triplicate, including a DMSO-only control on each plate. MIC determination by broth microdilution was not possible for M. smegmatis mc2 155 due to build up of cell aggregates in liquid cultures. The susceptibility of M. smegmatis mc2 155 towards selected compounds was thus tested using disc diffusion test on LB-agar plates as described above. The inhibition diameters were read after 48 h of incubation at 37° C.
Background: A growth-free zone around the sample is the usual read-out of agar diffusion tests.

Where [10] appears, read: Helicobacter pylori, H. pylori 26695, broth microdilution 24 h or derived from disc diffusion standard curve, read-out: MIC.

The source of these data is patent US20130102650A1, “ANTIMICROBIAL COMPOUNDS OF 1,4-NAPHTOQUINONE STRUCTURE” (priority 2010, published 2013).

≈ marks a conversion by molar mass, not a printed value. Where two headings read alike, the source gives them in different places.

T1 sequence (O41156 whole entry, the tested form may be a part): as the sequence (O41156 whole entry) above

As a reminder, the IC50 is the concentration needed to halve the response being measured. High values mean weaker potency in that assay, low ones greater potency in that assay. In general, inhibition refers to the share of the control response that was lost under treatment. With `O=C1C(O)=C(c2ccc(-c3ccccc3)cc2)C(=O)c2ccccc21` [Compound F6-C1, 2-(biphenyl-4-yl)-3-hydroxy-1,4-naphthoquinone], it took 0.2 µM to reach half-maximal inhibition in [1] (IC50). In series [2] (setting [10]), the MIC was found to be 10 µg/mL (≈ 30.6 µM). In addition, the inhibition at 20 µM in [3] was 95 ± 3%.

In turn, `Cc1ccc(C2=C(O)C(=O)c3ccccc3C2=O)cc1` [Compound A4-C2] came in with an IC50 in series [1] of 9 µM. In addition, the MIC in series [2] (setting [10]) came to 4.7 µg/mL (≈ 17.8 µM).

As to `COc1ccc(C2=C(O)C(=O)c3ccccc3C2=O)cc1` [Compound A3-C2], the IC50 in series [1] came to 8 µM. Also, in [2] (setting [10]), the MIC was determined as 4.7 µg/mL (≈ 16.8 µM).

Compound `O=C1C(O)=C(Cc2ccccc2)C(=O)c2ccccc21` [Compound A4-S] returned an IC50 in series [1] of 1.4 µM. In [2] (setting [10]), the MIC stood at 1.4 µg/mL (≈ 5.3 µM).

For the compound `O=C1C(O)=C(c2ccc(Br)cc2)C(=O)c2ccccc21` [Compound C8-S], in [1], the IC50 was 1.2 µM. This compound also returned an MIC in [2] (Helicobacter pylori, 26695, 24 h) of 7 µg/mL (≈ 21.3 µM).

One may read the Ki as the equilibrium dissociation constant of an inhibitor or competing ligand from its target. `O=C1C(O)=C([C@H]2CC[C@H](c3ccc(Cl)cc3)CC2)C(=O)c2ccccc21` [atovaquone, reference compound] had a Ki in [4] of 5000 nM. Besides, the “effect on apparent Km of the enzyme for dUMP” value (from here on “effect on apparent Km”) in series [5] is “increased the apparent Km value”.

Turning to `COc1ccc(C(=O)CC2=C(O)C(=O)c3ccccc3C2=O)cc1` [Compound G3-C1, 2-hydroxy-3-(2-(4-methoxyphenyl)-2-oxoethyl)-1,4-naphthoquinone], half-maximal inhibition in series [1] (IC50) was put at 13 µM. The MIC in [2] (setting [10]) came to 10 µg/mL (≈ 31 µM). Besides, the inhibition at 20 µM in series [3] is 22 ± 7%.

For `O=C(CC1=C(O)C(=O)c2ccccc2C1=O)c1ccccc1` [Compound E11-C1, 2-hydroxy-3-(2-oxo-2-phenylethyl)-1,4-naphthoquinone], the inhibition at 20 µM in series [3] was determined as 36 ± 5%.

In the case of `O=C(O)c1ccccc1NC1=CC(=O)c2c(O)cccc2C1=O` [Compound B3-C1, 2-(5-hydroxy-1,4-dioxo-1,4-dihydro-naphthalen-2-ylamino)benzoic acid], the inhibition at 20 µM in [3] amounted to 12 ± 6%.

In series [1], `O=C1C(O)=C(c2ccc3ccccc3c2)C(=O)c2ccccc21` [Compound A7-S] came in with an IC50 of 1.2 µM. In addition, in [2] (setting [10]), the MIC is 6 µg/mL (≈ 20 µM).

With `O=C(CC1=C(O)C(=O)c2ccccc2C1=O)c1cccs1` [Compound H3-C1, 2-hydroxy-3-(2-oxo-2-(thiophen-2-yl)ethyl)-1,4-naphthoquinone], in series [1], half-maximal inhibition (IC50) was put at 8 µM. In [2] (setting [10]), the MIC turned out to be 10 µg/mL (≈ 33.5 µM). For the same compound, in series [3], the inhibition at 20 µM came out at 38 ± 3%.

Consider `O=C1C=C(Br)C(=O)c2c(O)cccc21` [Compound 2E04, 2-bromo-8-hydroxy-1,4-naphthoquinone], for which the affinity in series [4] corresponds to a Ki of 1500 nM. Further, the “effect on apparent Km” value in [5] is “increased the apparent Km value”. For the same compound, in [6], the “bactericidal activity on isogenic wild type strain” value was “not observed”. Moreover, the “growth inhibition of E. coli FE010 (ΔthyA::thyX)” value in series [7] was “reproducibly inhibited”.

Consider `Cc1ccc(C(=O)CC2=C(O)C(=O)c3ccccc3C2=O)cc1` [Compound F3-C1, 2-hydroxy-3-(2-oxo-2-p-tolylethyl)-1,4-naphthoquinone], for which, in series [3], the inhibition at 20 µM stood at 38 ± 7%.

For `COc1ccc(CC2=C(O)C(=O)c3ccccc3C2=O)cc1` [Compound C8-C1, 2-hydroxy-3-(4-methoxybenzyl)-1,4-naphthoquinone], the inhibitory constant (Ki) in series [4] came to 250 nM. Further, in [1], 5 µM corresponded to half-maximal inhibition (IC50). Further, the “effect on apparent Km” value in series [5] was “increased the apparent Km value”. In addition, the “growth inhibition / antimicrobial activity against Helicobacter pylori 26695” value in series [2] is on record as “inhibited the growth”. The MIC in [2] (Helicobacter pylori, 26695, disc diffusion tests and liquid cultures, read-out: minimal inhibitory concentration (MIC)) was about 2.5 µg/mL (≈ 8.49 µM); in series [2] (setting [10]), 2.5 to 5 µg/mL (≈ 8.49 to 17 µM). In [8] (GreenScreen HC), the genotoxicity result was “non-genotoxic”. Further, the “cytotoxic activity in metabolic activation tests” value in series [8] (S9 fraction, 10 μg/ml) was “further decreased”. The cytotoxic activity entry in series [8] (without metabolic activation) is “low cytotoxic activity”. Also, the inhibition at 20 µM in [3] is 78 ± 4%. In series [9], the “growth inhibition / antimicrobial activity against Mycobacterium smegmatis mc2155” value is listed as “inhibited the growth”.
